Reference: patent US20220233624A9, “ANTI-CANCER AND ANTI-PROLIFERATIVE COMPOSITIONS, AND METHODS FOR THEIR USE IN TREATING CANCER” (Natreon, Inc., priority 2020, published 2022)
pIC50: −log10 of the molar value. Several values for one entry are separate records, joined by “and”; a condition that tells them apart may be missing. Equal values may be shown once. Read-outs that look alike come from different tables or passages of the source.

Tests used:
[1] = test system: Breast Cancer PDCs, Triple negative (TN), SB 36344; assay: Anti-proliferation assay on breast cancer TN PDCs; format: cell-based, human; conditions: drug alone @ 10 uM; for inhibition at 10 µM: Homo sapiens
Method: The outermost rows/columns of the plates were filled with PBS (pH 7.4) to avoid an edge-effect and were considered as blanks. Standardized aqueous extracts identified in Table 2 were prepared in main stock solutions by dissolving 1 mg of extract in 1 ml PBS (phosphate-buffered saline, pH 7.4). […] The plate was incubated in a CO2 incubator for 0/N incubation for 24 hours. […] Once extracts were added to incubated cells and mixed gently, the plate was given a brief spin and incubated in the CO2 incubator for 72 hours. The plate was removed from the incubator and 10 ul of detection reagent (CellTiterGlo®; Promega Corporation, Wisconsin, USA) added to each well of the 384 well plate. […] The assay described above is a two-dimensional (2D) assay.

[2] = test system: AML (Acute myeloid leukemia) PDCs, M4 subtype (SB 33866); assay: Anti-proliferation assay on AML PDCs; format: cell-based, human; conditions: for inhibition at 10 µM: assay drug control @ 10 uM
Method: Anti-proliferation assays were performed on 6 types of primary patient-derived cancer cells (PDCs) from 6 different human donors, as described in Table 1:
Tests were performed in 384-well plates (24×16), using 1250 to 10,000 cells/well depending on the size and proliferation rate of different PDCs, in 30 ul of culture media (DMEM/F12 with serum and growth factors), with control wells set aside on each plate for media alone (4 wells), untreated PDCs (4 wells), and for PDCs treated with 10 ul of a known anti-cancer drug as a control. […] The outermost rows/columns of the plates were filled with PBS (pH 7.4) to avoid an edge-effect and were considered as blanks.
Standardized aqueous extracts identified in Table 2 were prepared in main stock solutions by dissolving 1 mg of extract in 1 ml PBS (phosphate-buffered saline, pH 7.4).
Anti-Proliferation Assay Protocol: 30 ul of cells were plated at the density of 1250 to 10,000 cells/well. The plate was incubated in a CO2 incubator for 0/N incubation for 24 hours. […] Final assay concentrations of made from stock solutions of standardized aqueous extracts identified in Table 2 were 100 ug/ml, 30 ug/ml, and 10 ug/ml. Since 10 ul extract was added to 30 ul of cell suspension, it diluted 4 times, so to maintain the final assay concentrations, 4× concentrated extract solutions (400 ug/ml, 120 ug/ml, and 40 ug/mo) were prepared from main stock (1 mg/ml) and added to the plate. In all experiments, 10 ul of 4 times concentrated stock (4×) was added to wells containing 30 ul of cell suspension to achieve final assay concentrations at 1X.
Once extracts were added to incubated cells and mixed gently, the plate was given a brief spin and incubated in the CO2 incubator for 72 hours. The plate was removed from the incubator and 10 ul of detection reagent (CellTiterGlo®; Promega Corporation, Wisconsin, USA) added to each well of the 384 well plate. The plate was incubated (10 min) and luminescence counts measured, with luminescence produced proportional to the number of viable (living, metabolically active) cells for each assay. The assay described above is a two-dimensional (2D) assay.
In this Example, AML drugs were used as disease specific controls.
As discussed above in Example I, 6 extracts (Ayuflex®, Capros®, Phyto-BGS®, PrimaVie®, Sensoril®, and Ayuric®) were tested on AML PDC-SB cells (33866, M-4 type, subject) at 3 concentrations: 100 ug/ml, 30 ug/ml, and 10 ug/ml.

[3] = test system: colon cancer cells (cell line HT-29); assay: Anti-proliferation assay on colon cancer cells; format: cell-based; conditions: Homo sapiens
Method: Anti-proliferative and anti-cancer activity of extracts of this invention on non-small cell lung cancer cells and colon cancer cells were assessed generally as described in Example I and are discussed below. […] As noted throughout this application, the below data is intended to describe the present invention but not to be limiting.
Non-small cell lung cancer cells (cell line NCI-H-358) and colon cancer cells (cell line HT-29) were plated in a 384-well plate in amounts of about 1.25 k cells/well. […] Wells with untreated cells and with plain media were also included as controls. Plates passed quality control parameters.

[4] = test system: Glioma SB 32833 Glioblastoma Grade IV patient derived cells; assay: Anti-proliferation assay on glioma PDCs SB 32833; format: cell-based; conditions: Homo sapiens, drug @ 10 uM
Method: The anti-cancer activity of AyuFlex®, Capros®, and Ayuric® was further tested on two other glioma PDCs taken from 2-3 different subjects (SB 6129, SB 32833 (person)). […] Also, the anti-cancer activity of AyuFlex®, Capros®, and Ayuric® was further tested on existing glioblastoma cell line U87 MG, to allow comparisons with other compositions known in the art. AyuFlex®, Capros®, and/or Ayuric® were incubated with the new PDC lines and the U87 MG cell line for 72 hours, as described in Example I above.
Table 68 relates to FIG. 31, a graph showing the efficacy of AyuFlex®, Capros®, and/or Ayuric® on Glioma SB 32833 Glioblastoma Grade IV patient derived cells, in a combination study.

[5] = test system: Prostate cancer (PC-3) cells; assay: Anti-proliferation assay on prostate cancer cells; format: cell-based; conditions: Homo sapiens
Method: Cells were plated at 1.25 k/well in 384 well plates. […] Anti-proliferative assays were generally performed as discussed in Example I above, in triplicate, with detection reagent CellTiterGlo. Tables 80-82 show data for controls for assays on prostate cancer (PC-3 cells), and that the data passed quality control parameters. Tables 83-85 show data for controls for assays on ovarian cancer (OVCAR-3 cells), and that the data passed quality control parameters.

SMILES: COc1cccc2c1C(=O)c1c(O)c3c(c(O)c1C2=O)C[C@@](O)(C(=O)CO)C[C@@H]3O[C@H]1C[C@H](N)[C@H](O)[C@H](C)O1 [Doxorubicin, doxorubicin]
- inhibition at 10 µM ([1]; read-out: % Inhibition Avg): 73%
- inhibition at 10 µM ([1]; read-out: % Inhibition, single replicates): 73%
- % Inhibition Avg ([1]; 10 µM): 93%
- % Inhibition, single replicates ([1]; 10 µM): 72% and 91% and 92%
- Inhibitory Concentration IC75 ([2]; AML cells (M4)): 260 nM
- inhibition at 10 µM ([2]; Homo sapiens, read-out: % Inhibition Avg): 72%
- inhibition at 10 µM ([2]; Homo sapiens, read-out: % Inhibition n1): 70%
- inhibition at 10 µM ([2]; Homo sapiens, read-out: % Inhibition n2): 73%
- inhibition at 3 µM ([2]; Homo sapiens, drug alone 3 uM, read-out: inhibition of AML proliferation): 100%
- inhibition at 3 µM ([2]; Homo sapiens, drug alone @ 3 uM, read-out: % Inhibition Avg): 100%
- inhibition at 3 µM ([2]; Homo sapiens, drug alone @ 3 uM, read-out: % Inhibition n1): 100%
- inhibition at 3 µM ([2]; Homo sapiens, drug alone @ 3 uM, read-out: % Inhibition n2): 100%
- inhibition at 3 µM ([2]; Homo sapiens, drug alone @ 3 uM, read-out: % Inhibition n3): 100%
- pIC50 ([2]; Homo sapiens, AML cells (M4), read-out: Inhibitory Concentration IC50): 6.99
- inhibition at 10 µM ([3]; drug 10 uM, read-out: inhibition of proliferation): 94%
- inhibition at 10 µM ([3]; plate control @ 10 uM, read-out: % Inhibition Average (SD)): 94%
- inhibition at 10 µM ([3]; plate control @ 10 uM, read-out: % Inhibition n1): 94%
- inhibition at 10 µM ([3]; plate control @ 10 uM, read-out: % Inhibition n2): 93%
- inhibition at 10 µM ([3]; plate control @ 10 uM, read-out: % Inhibition n3): 94%
- inhibition at 10 µM ([4]; read-out: % Inhibition Avg): 87%
- inhibition at 10 µM ([4]; read-out: % Inhibition n1): 91%
- inhibition at 10 µM ([4]; read-out: % Inhibition n2): 86%
- inhibition at 10 µM ([4]; read-out: % Inhibition n3): 86%
- inhibition at 10 µM ([5]; 10 uM, 72 h, read-out: % Inhibition Average (SD)): 70%
- inhibition at 10 µM ([5]; 10 uM, 72 h, read-out: % Inhibition n1): 70%
- inhibition at 10 µM ([5]; 10 uM, 72 h, read-out: % Inhibition n2): 70%
- inhibition at 10 µM ([5]; 10 uM, 72 h, read-out: % Inhibition n3): 71%
- inhibition at 10 µM ([5]; drug 10 uM, read-out: inhibition): 70%
